Measured values reported in patent US11286252B2, “Alkene spirocyclic compounds as farnesoid X receptor modulators” (BRISTOL-MYERS SQUIBB COMPANY, priority 2017, dated 2022).

Molecular target: T1, human FXR (Homo sapiens, UniProt Q96RI1)
T1 construct: expressed in transfected cells; host or cells: HEK293 cells stably carrying a 5xGal4-response-element firefly luciferase reporter, transiently transfected with pcDNA3.1-Gal4-FXR
T1 sequence (Q96RI1 262-486 limits assumed): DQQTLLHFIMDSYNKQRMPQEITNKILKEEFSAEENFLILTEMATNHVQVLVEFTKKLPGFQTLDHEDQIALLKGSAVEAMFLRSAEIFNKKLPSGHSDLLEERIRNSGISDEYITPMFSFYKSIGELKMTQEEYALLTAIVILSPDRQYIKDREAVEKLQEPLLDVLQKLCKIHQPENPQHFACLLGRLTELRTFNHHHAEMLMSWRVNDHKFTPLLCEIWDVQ
Assay: transient human FXR/Gal4-luciferase reporter assay
Format: cell-based
Conditions: Gal4-hFXR fusion construct, luciferase reporter HEK293 cells; response relative to 8 μM GW-4064
Experimental: The exemplified compounds of the present invention were tested in the transient human FXR/Gal4-luciferase reporter assay, and assay results were reported in Table 1 and Examples 1 to 3 together with other analytical data.
A Gal4-hFXR fusion construct reporter system was used as the primary assay to characterize compound activity. A construct including 5 copies of the Gal4 promoter response element upstream of a firefly luciferase reporter cDNA was stably expressed in HEK293 cells. This reporter cell line was maintained in Dulbecco's Modified Eagle's medium (DMEM; Gibco) supplemented with 1% penicillin-streptomycin (P/S) solution, 500 μg/mL Zeocin and 10% charcoal/dextran-treated fetal bovine serum (cs-FBS) at 37° C. in a humidified 5% CO2 atmosphere. Another plasmid was constructed in which the human cytomegalovirus promoter in the pcDNA3.1 vector directs the expression of the cDNA encoding a fusion protein comprised of the DNA binding domain from the Gal4 transcription factor fused to the ligand binding domain from human FXR.
The day prior to transfection, the reporter cells in culture are detached from the plate with trypsin and plated into a T75 flask at a sufficient density to achieve approximately 90% confluence the next morning. The transfection reagents are prepared by separately diluting 25 μg of the pcDNA3.1-Gal4-FXR plasmid into 1.87 mL of Opti-MEM (Thermo-Fisher), and 40 μL of Lipofectamine 2000 (Thermo-Fisher) into 1.87 mL of Opti-MEM, and then adding the diluted DNA solution into the diluted Lipofectamine 2000 solution and incubating at room temperature for 15-20 minutes. The mixture is further diluted with 10 mL of a solution comprised of DMEM, 10% cs-FBS, and 1% P/S immediately prior to transferring to the cells. The maintenance culture media is aspirated from the cells and the final transfection mixture is added before the cells are incubated overnight at 37° C. in a humidified 5% CO2 atmosphere. This protocol can be scaled up, and the transiently transfected cells can be cryopreserved in an assay-ready format.
For compound testing, 100 nL of the compounds (serial dilutions in DMSO) are dispensed with an Echo acoustic dispenser (Labcyte) into the wells of a Corning/Costar clear bottom 384-well white plate. The transfected cells are harvested, counted, and diluted such that 10-25,000 cells in 25 μL are plated into each well of the 384-well compound assay plate. The compound-treated cells are incubated overnight at 37° C. in a humidified 5% CO2 atmosphere. The next morning 25 μL of Steady-Glo (Promega) are added to each well of the plate, the mixture is incubated for 15 min. with shaking, and luminescence is measured on an Envision (Perkin Elmer) plate reader. Background counts from cells treated with DMSO alone are subtracted from all raw counts, and the corrected values are converted to a percentage of the control response attained with 8 μM GW-4064.

Row | EC50 [nM] | Compound
1 | 501 | COc1cc(C(=O)O)nc2ccc(N3CC4(CC(/C=C/c5c(-c6ccncc6Cl)noc5C5CC5)C4)C3)cc12 [Example 2, (E)-6-(6-(2-(3-(3-chloropyridin-4-yl)-5-cyclopropylisoxazol-4-yl)vinyl)-2-azaspiro[3.3]heptan-2-yl)-4-methoxyquinoline-2-carboxylic acid]
2 | 155 | COc1cc(C(=O)O)nc2ccc(N3CC4(CC(/C=C/c5c(-c6c(Cl)cncc6Cl)noc5C5CC5)C4)C3)cc12 [Example 1, (E)-6-(6-(2-(5-Cyclopropyl-3-(3,5-dichloropyridin-4-yl)isoxazol-4-yl)vinyl)-2-azaspiro[3.3]heptan-2-yl)-4-methoxyquinoline-2-carboxylic acid]

Same assay, conditions: Gal4-hFXR fusion construct, luciferase reporter HEK293 cells; response relative to 8 μM GW-4064; unit inferred

Row | EC50 [nM] | Compound
3 | 667 | O=C(O)c1cc(F)c2nc(N3CC4(CC(/C=C/c5c(-c6c(Cl)cncc6Cl)noc5C5CC5)C4)C3)sc2c1 [Example 10]
4 | 139 | Cc1cc(OCC2CC3(CC(/C=C/c4c(-c5ccccc5C(F)(F)F)noc4C4CC4)C3)C2)cnc1C(=O)O (single isomer, unassigned) [Example 31, (E)-5-((6-(2-(5-Cyclopropyl-3-(2-(trifluoromethyl)phenyl)isoxazol-4-yl)vinyl)spiro [3.3]heptan-2-yl)methoxy)-3-methylpicolinic acid]
5 | 85 | Cc1c(OCC2CC3(CC(/C=C/c4c(-c5c(Cl)cncc5Cl)noc4C4CC4)C3)C2)nn(C(C)C)c1C(=O)O (stereo not drawn) [Example 59]
6 | 24 | Cn1nc(C(=O)O)cc1OCC1CC2(CC(/C=C/c3c(-c4c(Cl)cncc4Cl)noc3C3CC3)C2)C1 (stereo not drawn) [Example 45]
7 | 99 | Cn1nc(C(=O)O)cc1OCC1CC2(CC(/C=C/c3c(-c4ccccc4C(F)(F)F)noc3C3CC3)C2)C1 (stereo not drawn) [Example 51]
8 | 140 | O=C(O)c1cc(C(F)(F)F)c2cc(N3CC4(CC(/C=C/c5c(-c6ccncc6Cl)noc5C5CC5)C4)C3)ccc2n1 [Example 6]
9 | 79 | CC(C)Oc1cc(C(=O)O)nc2ccc(N3CC4(CC(/C=C/c5c(-c6c(Cl)cncc6Cl)noc5C5CC5)C4)C3)cc12 [Example 11]
10 | 165 | O=C(O)c1cc(OC2COC2)c2cc(N3CC4(CC(/C=C/c5c(-c6cccnc6C(F)(F)F)noc5C5CC5)C4)C3)ccc2n1 [Example 23]
11 | 104 | COc1cc(C(=O)O)nc2ccc(N3CC4(CC(/C=C/c5c(-c6ccccc6C(F)(F)F)noc5C5CC5)C4)C3)cc12 [Example 16]
12 | 18 | O=C(O)c1cc(O[C@H]2CCOC2)c2cc(N3CC4(CC(/C=C/c5c(-c6ccccc6C(F)(F)F)noc5C5CC5)C4)C3)ccc2n1 [Example 21]
13 | 268 | Cc1cc(C(=O)O)nc2sc(N3CC4(CC(/C=C/c5c(-c6ccccc6C(F)(F)F)noc5C5CC5)C4)C3)nc12 [Example 9]
14 | 302 | CCc1nc(C(=O)O)cc2ccc(N3CC4(CC(/C=C/c5c(-c6c(Cl)cncc6Cl)noc5C5CC5)C4)C3)cc12 [Example 14]
15 | 50 | O=C(O)c1ncc(OCC2CC3(CC(/C=C/c4c(-c5c(Cl)cncc5Cl)noc4C4CC4)C3)C2)cc1C(F)(F)F (stereo not drawn) [Example 55]
16 | 36 | O=C(O)c1ncc(OCC2CC3(CC(/C=C/c4c(-c5ccccc5C(F)(F)F)noc4C4CC4)C3)C2)cc1OC1CCC1 (stereo not drawn) [Example 62]
17 | 16 | O=C(O)c1ncc(OCC2CC3(CC(/C=C/c4c(-c5ccccc5C(F)(F)F)noc4C4CC4)C3)C2)cc1OC1CC1 (stereo not drawn) [Example 61]
18 | 22 | O=C(O)c1cc(C(F)(F)F)c2cc(OCC3CC4(CC(/C=C/c5c(-c6c(Cl)cncc6Cl)noc5C5CC5)C4)C3)ccc2n1 (stereo not drawn) [Example 46]
19 | 188 | CN1CCN(c2cc(C(=O)O)nc3ccc(OCC4CC5(CC(/C=C/c6c(-c7c(Cl)cncc7Cl)noc6C6CC6)C5)C4)cc23)CC1 (stereo not drawn) [Example 66]
20 | 75 | O=C(O)c1cc2ccc(OCC3CC4(CC(/C=C/c5c(-c6c(Cl)cncc6Cl)noc5C5CC5)C4)C3)cc2nn1 (stereo not drawn) [Example 57]
21 | 231 | O=C(O)c1cc(O[C@@H]2CCOC2)c2cc(N3CC4(CC(/C=C/c5c(-c6cccnc6C(F)(F)F)noc5C5CC5)C4)C3)ccc2n1 [Example 26]
22 | 85 | O=C(O)c1cc(OC2CCC2)c2cc(N3CC4(CC(/C=C/c5c(-c6c(Cl)cncc6Cl)noc5C5CC5)C4)C3)ccc2n1 [Example 17]
23 | 33 | O=C(O)c1cc(O[C@@H]2CCOC2)c2cc(N3CC4(CC(/C=C/c5c(-c6ccccc6C(F)(F)F)noc5C5CC5)C4)C3)ccc2n1 [Example 20]
24 | 429 | Cc1nc(C(=O)O)cc2ccc(N3CC4(CC(/C=C/c5c(-c6c(Cl)cncc6Cl)noc5C5CC5)C4)C3)cc12 [Example 13]

Row | EC50 [nM] | Compound
25 | 142 | Cc1cc(OCC2CC3(CC(/C=C/c4c(-c5ccccc5C(F)(F)F)noc4C4CC4)C3)C2)cnc1C(=O)O (stereo not drawn) [Example 50]
26 | 302 | CN1CCN(c2cc(C(=O)O)nc3ccc(OCC4CC5(CC(/C=C/c6c(-c7ccccc7C(F)(F)F)noc6C6CC6)C5)C4)cc23)CC1 (stereo not drawn) [Example 67]
27 | 169 | COc1nc(C(=O)O)cc2ccc(N3CC4(CC(/C=C/c5c(-c6ccccc6C(F)(F)F)noc5C5CC5)C4)C3)cc12 [Example 19]
28 | 85 | CC(C)Oc1cc(C(=O)O)nc2ccc(N3CC4(CC(/C=C/c5c(-c6ncccc6C(F)(F)F)noc5C5CC5)C4)C3)cc12 [Example 15]
29 | 214 | NC(=O)c1cccc(OCC2CC3(CC(/C=C/c4c(-c5ccccc5C(F)(F)F)noc4C4CC4)C3)C2)c1 (stereo not drawn) [Example 48]
30 | 60 | O=C(O)c1cc(C(F)(F)F)c2cc(N3CC4(CC(/C=C/c5c(-c6c(Cl)cccc6Cl)noc5C5CC5)C4)C3)ccc2n1 [Example 4]
31 | 1630 | COc1cc(C(=O)O)nc2ccc(N3CC4(CC(/C=C/c5c(-c6c(Cl)cncc6Cl)noc5C5CC5)C4)C3)nc12 [Example 28]
32 | 29 | CC(C)Oc1cc(C(=O)O)nc2ccc(N3CC4(CC(/C=C/c5c(-c6ccccc6C(F)(F)F)noc5C5CC5)C4)C3)cc12 [Example 12]
33 | 153 | CCOc1cc(C(=O)O)nc2ccc(N3CC4(CC(/C=C/c5c(-c6cccnc6C(F)(F)F)noc5C5CC5)C4)C3)cc12 [Example 25]
34 | 137 | O=C(O)c1cc(C(F)(F)F)c2cc(N3CC4(CC(/C=C/c5c(-c6ccccc6C(F)(F)F)noc5C5CC5)C4)C3)ccc2n1 [Example 8]
35 | 178 | NC(=O)Cc1ccc(OCC2CC3(CC(/C=C/c4c(-c5ccccc5C(F)(F)F)noc4C4CC4)C3)C2)cc1 (stereo not drawn) [Example 49]
36 | 34 | O=C(O)c1cc(OCC2CC3(CC(/C=C/c4c(-c5c(Cl)cncc5Cl)noc4C4CC4)C3)C2)n(C2CC2)n1 (stereo not drawn) [Example 60]
37 | 530 | O=C(O)c1cc(C(F)(F)F)c2cc(N3CC4(CC(/C=C/c5c(-c6c(Cl)cncc6Cl)noc5C5CC5)C4)C3)ccc2n1 [Example 7]
38 | 122 | O=C(O)c1cc2ccc(OCC3CC4(CC(/C=C/c5c(-c6ccccc6C(F)(F)F)noc5C5CC5)C4)C3)cc2nn1 (stereo not drawn) [Example 54]
39 | 82 | O=C(O)c1cc(C(F)(F)F)c2cc(OCC3CC4(CC(/C=C/c5c(-c6ccccc6C(F)(F)F)noc5C5CC5)C4)C3)ccc2n1 (stereo not drawn) [Example 52]
40 | 393 | NC(=O)c1ncc(OCC2CC3(CC(/C=C/c4c(-c5ccccc5C(F)(F)F)noc4C4CC4)C3)C2)cc1OC1CCC1 (stereo not drawn) [Example 63]
41 | 130 | O=C(O)c1ccc(N2CC3(CC(/C=C/c4c(-c5c(Cl)cccc5Cl)noc4C4CC4)C3)C2)cc1 [Example 5]
42 | 95 | O=C(O)c1ncc(OCC2CC3(CC(/C=C/c4c(-c5ccccc5C(F)(F)F)noc4C4CC4)C3)C2)cc1C(F)(F)F (stereo not drawn) [Example 56]
43 | 187 | O=C(O)c1ccc2cc(OCC3CC4(CC(/C=C/c5c(-c6ccccc6C(F)(F)F)noc5C5CC5)C4)C3)ccc2n1 (stereo not drawn) [Example 53]
44 | 111 | COc1cc(C(=O)O)nc2ccc(N3CC4(CC(/C=C/c5c(-c6cccnc6C(F)(F)F)noc5C5CC5)C4)C3)cc12 [Example 22]
45 | 52 | O=C(O)c1cc(OC2COC2)c2cc(N3CC4(CC(/C=C/c5c(-c6ccccc6C(F)(F)F)noc5C5CC5)C4)C3)ccc2n1 [Example 18]
